Test results as given in article PMC10383271.

How the values were obtained:
15-LOX = target: T1, 15-LOX (Glycine max, UniProt P08170); experiment: 15-LOX inhibition, Cayman's Lipoxygenase Inhibitor Screening Assay Kit
T1 sequence (P08170 1-839): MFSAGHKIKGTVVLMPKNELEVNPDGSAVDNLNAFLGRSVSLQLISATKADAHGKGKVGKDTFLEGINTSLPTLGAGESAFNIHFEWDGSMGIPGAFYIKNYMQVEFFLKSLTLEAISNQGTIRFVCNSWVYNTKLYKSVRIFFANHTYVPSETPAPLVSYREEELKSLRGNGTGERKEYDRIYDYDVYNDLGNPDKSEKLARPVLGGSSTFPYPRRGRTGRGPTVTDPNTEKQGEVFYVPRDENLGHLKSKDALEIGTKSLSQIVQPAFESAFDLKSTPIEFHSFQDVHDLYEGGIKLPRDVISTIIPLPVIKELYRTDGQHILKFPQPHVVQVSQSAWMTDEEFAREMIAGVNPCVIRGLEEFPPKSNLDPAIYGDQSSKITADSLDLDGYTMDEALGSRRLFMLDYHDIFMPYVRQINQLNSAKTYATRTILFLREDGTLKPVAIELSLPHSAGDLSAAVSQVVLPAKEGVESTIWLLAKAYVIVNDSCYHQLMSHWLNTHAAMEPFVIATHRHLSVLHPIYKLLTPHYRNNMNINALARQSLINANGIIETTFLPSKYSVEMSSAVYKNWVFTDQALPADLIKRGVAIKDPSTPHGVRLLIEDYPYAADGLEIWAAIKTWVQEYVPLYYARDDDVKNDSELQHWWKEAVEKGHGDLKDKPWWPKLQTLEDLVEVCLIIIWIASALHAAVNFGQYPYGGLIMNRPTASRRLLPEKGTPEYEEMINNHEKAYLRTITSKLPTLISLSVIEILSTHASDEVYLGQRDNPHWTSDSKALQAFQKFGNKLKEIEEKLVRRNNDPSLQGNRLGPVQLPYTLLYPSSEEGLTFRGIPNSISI

COX-1 = target: T2, COX-1 (Ovis aries, UniProt P05979); experiment: COX-1 inhibition, Cayman's COX Colorimetric Inhibitor Screening Assay Kit
T2 sequence (P05979 25-600): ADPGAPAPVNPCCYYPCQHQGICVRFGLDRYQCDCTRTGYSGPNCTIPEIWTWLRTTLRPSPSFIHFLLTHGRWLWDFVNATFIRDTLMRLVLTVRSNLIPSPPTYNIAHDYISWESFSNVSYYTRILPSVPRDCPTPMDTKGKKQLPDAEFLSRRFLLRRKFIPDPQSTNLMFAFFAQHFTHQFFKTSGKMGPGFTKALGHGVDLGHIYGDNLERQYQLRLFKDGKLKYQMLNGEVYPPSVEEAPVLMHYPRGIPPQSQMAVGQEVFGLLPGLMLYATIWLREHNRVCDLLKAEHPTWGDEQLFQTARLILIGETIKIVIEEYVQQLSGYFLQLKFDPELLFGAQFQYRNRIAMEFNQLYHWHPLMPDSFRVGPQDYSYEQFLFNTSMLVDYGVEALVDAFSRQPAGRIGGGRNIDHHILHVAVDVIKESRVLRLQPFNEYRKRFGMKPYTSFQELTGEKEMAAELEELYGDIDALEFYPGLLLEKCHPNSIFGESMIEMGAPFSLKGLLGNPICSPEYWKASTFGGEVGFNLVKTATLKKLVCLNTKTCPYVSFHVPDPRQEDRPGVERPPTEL

[1] = tested on: normal human dermal fibroblasts (NHDF); experiment: MTT assay, viability of NHDF cell culture (ISO 10993 part 5); type: cell-based; details: NHDF cell cultures, 24 h incubation; for IC50: Homo sapiens, MTT, mean (± SD), n = 5
Method: The viability of the normal human dermal fibroblasts (NHDF) cell culture after 24 h incubation with the tested compounds 5a-c-7a-c was assessed by carrying out the MTT assay. This test was performed according to ISO 10993 part 5, Appendix C. For all tested compounds, the IC50 values were calculated using four-parameter logistics. Normal human dermal fibroblasts (NHDF) were purchased from the American Type Culture Collection (ATCC) for cytotoxicity evaluation of the tested compounds. The cells were grown in Dulbecco's Modified Eagle Medium DMEM with […] glucose without phenol red supplemented with 10% FBS and 2 mM L-glutamine, and 25 μg/mL gentamicin. The NHDF cells were cultured under standard conditions (5% CO2, 37 °C, and 95% humidity) with evaluation morphology and confluence at least twice a week. For the assay, the cells were used only in a logarithmic growth phase, and the TrypLE solution was used for 2 min at 37 °C to detach cells. Then, the TrypLE solution was inactivated by adding a culture medium, and the suspension of cells was collected into a tube and centrifuged for 5 min at 1000 rpm. Then, the supernatant was removed, fresh medium was added, and the pellet was resuspended and calculated using the […] chamber. The suspension of cells was prepared to allow seeding 10,000 cells/well density and incubated for 24 h to regenerate in CO2-incubator. The tested compounds were dissolved in DMSO to a final concentration of 10 mM and stored at -20 °C. Before use, the compound solution was kept at room temperature until thawing, and then, samples with 3 different concentrations of compounds were prepared (100 μM, 50 μM, and 10 μM) for each compound. The tested concentrations of compounds were prepared in a culture medium. […] The evaluation of the cytotoxicity of the newly synthesized compounds was carried out in accordance with the ISO 10,993 part V standard by performing the MTT test. After seeding at a density of 10,000 cells per well and adhering overnight, the NHDF cells were treated with the test compounds for 24 h in a CO2 incubator. The supernatant was then removed, the cells were washed with PBS, a 1mg/mL solution of MTT dissolved in MEM was added, and the cultures were re-incubated for 2 h in a CO2 incubator. The medium was then removed, and for a further 30 min, the formazan crystals were dissolved in 100 μL of isopropanol. The absorbance was measured with a Varioskan Go microplate reader at a wavelength of 570 nm. […] For enzyme assays, the IC50 was calculated according to the procedure provided by the kit manufacturer. The significance was set at p < 0.05. Based on the tests performed, the test power was calculated to be greater than 80%.

SMILES | IC50 (15-LOX) | IC50 (COX-1) | IC50 [1] | Cell Morphology in Culture [1]
CCCCn1c(C)c2c(OCC(=O)N/N=C/c3ccccc3)nn(C)c(=O)c2c1C [Compound 5a, N-[(Z/E)-benzylideneamino]-2-(6-butyl-3,5,7-trimethyl-4-oxo-pyrrolo[3,4-d]pyridazin-1-yl)oxy-acetamide] | 12.9 ± 0.06 µM | 81.9 ± 2.1 µM | 85.6 ± 2.5 µM | Cells with an elongated shape characteristic of fibroblasts, the granularities were observed in 3–5 fields of view from 10 analyzed fields.
Cc1c2c(OCC(=O)N/N=C/c3ccccc3)nn(C)c(=O)c2c(C)n1-c1cccc(Cl)c1 [Compound 5c, N-[(Z/E)-benzylideneamino]-2-[6-(3-chlorophenyl)-3,5,7-trimethyl-4-oxo-pyrrolo[3,4-d]pyridazin-1-yl]oxyacetamide] | 12.7 ± 0.04 µM | 98.9 ± 1.6 µM | 95.2 ± 1.5 µM | Cells with an elongated shape characteristic of fibroblasts, the granularities were observed in 3–5 fields of view from 10 analyzed fields.
Cc1c2c(OCC(=O)N/N=C/c3ccccc3)nn(C)c(=O)c2c(C)n1-c1ccccc1 [Compound 5b, N-[(Z/E)-benzylideneamino]-2-(3,5,7-trimethyl-4-oxo-6-phenyl-pyrrolo[3,4-d]pyridazin-1-yl)oxy-acetamide] | 13.5 ± 0.02 µM | 90.1 ± 1.8 µM | 486 ± 6.5 µM | Normal morphology of fibroblasts-elongated cells, single granular cells in 1 of 10 assessed fields of view.
